For 16 compounds, TGI and GI50 results are on record in PubChem BioAssay (NCI).

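Exposure lasted 48 hours, with cells grown in 96-well plates and compounds tested at five concentrations. GI50 = concentration required for 50% inhibition of growth. At the TGI there is no net growth.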 Where only a bound is given, the exact number is not on record here.

Some test systems named below: IGROV1 ovarian; HOP-62 NSCLC; OVCAR-4 ovarian; NCI/ADR-RES ovarian; PC-3 prostate; 786-0 renal; HOP-92 NSCLC; MCF7 breast; HS 578T breast; DU-145 prostate.
Common to all, as to experiment: NCI anticancer screen, dose series, 48 h

Regarding `O=CCC1CCCCC1`, the TGI in the assay on IGROV1 ovarian, with HOP-62 NSCLC, with OVCAR-4 ovarian, in the assay with NCI/ADR-RES ovarian, with PC-3 prostate and in the assay with 786-0 renal was above 100 µM in each case. Besides, the TGI with HOP-92 NSCLC is above 100 µM.

`N#CN/C(N)=N/CO`: the TGI with IGROV1 ovarian is above 100 µM; in the assay with HOP-62 NSCLC it was above 100 µM; in the assay on OVCAR-4 ovarian, above 100 µM; in the assay with 786-0 renal, above 62.1 µM; with HOP-92 NSCLC, above 100 µM.

On to `CSc1nc(=O)n(CCC#N)nc1SC`, for which the TGI in the assay with MCF7 breast was 9.04 µM; with IGROV1 ovarian, above 100 µM; with HS 578T breast it was above 100 µM; in the assay with DU-145 prostate it was above 100 µM; in the assay with HOP-62 NSCLC, above 100 µM; with NCI/ADR-RES ovarian, above 100 µM. Further, the TGI in the assay on PC-3 prostate is above 100 µM; in the assay on 786-0 renal, 44.6 µM.

As for `CC(=O)CCn1ncc(Cl)c(Cl)c1=O`, the TGI was found to be 35.9 µM in the assay on IGROV1 ovarian; 35.4 µM in the assay on HOP-62 NSCLC; 21.9 µM with OVCAR-4 ovarian; 54.9 µM with 786-0 renal; 34.1 µM in the assay with HOP-92 NSCLC.

Turning to `N=C(N)C1CN(CCc2c[nH]c3ccccc23)C(=O)NC1=O` (stereo unspecified), the TGI with MCF7 breast, with IGROV1 ovarian, in the assay with DU-145 prostate, in the assay with HOP-62 NSCLC, in the assay on OVCAR-4 ovarian and in the assay with NCI/ADR-RES ovarian was above 100 µM in each case. The TGI in the assay with PC-3 prostate, in the assay on 786-0 renal and in the assay on HOP-92 NSCLC was above 100 µM in each case.

Take `CCC(=O)CC(=O)CCC(=O)Nc1cc(C)ccc1C`: the TGI in the assay on IGROV1 ovarian, in the assay on 786-0 renal and in the assay on HOP-92 NSCLC was above 100 µM throughout.

As for `CCCCOC(=O)CNC(=O)OC/C=C/C#CC#C/C=C/COC(=O)NCC(=O)OCCCC`, the GI50 in the assay on IGROV1 ovarian is above 100 µM; in the assay on HOP-62 NSCLC, above 100 µM; in the assay with OVCAR-4 ovarian it was above 100 µM; with 786-0 renal it was above 10 µM; with HOP-92 NSCLC, above 100 µM. For the same compound, the TGI with IGROV1 ovarian, in the assay with HOP-62 NSCLC, in the assay with OVCAR-4 ovarian, in the assay with 786-0 renal and with HOP-92 NSCLC was above 100 µM each time.

Regarding `O=C(CCN(C(=O)O)S(=O)(=O)c1ccc(NC(=O)c2ccccc2)cc1)Nc1ccccc1`, the TGI with IGROV1 ovarian, in the assay with HOP-62 NSCLC, in the assay on OVCAR-4 ovarian, with 786-0 renal and with HOP-92 NSCLC was above 100 µM each time.

Regarding `CC(C)C(CCl)NC(=O)c1cccc(C(=O)N[C@H](CCl)C(C)C)n1` (stereo in doubt), the TGI in the assay with IGROV1 ovarian, in the assay with HOP-62 NSCLC, in the assay on OVCAR-4 ovarian, in the assay with 786-0 renal and in the assay on HOP-92 NSCLC was above 100 µM in each case.

In the case of `NC(=S)N/N=C(\CC1OC(=O)c2ccccc21)c1ccc(Cl)cc1` (stereo unspecified), the TGI was above 100 µM with IGROV1 ovarian; 46 µM in the assay on HOP-62 NSCLC; 99 µM with OVCAR-4 ovarian; above 100 µM with 786-0 renal; 91.7 µM with HOP-92 NSCLC.

Consider `N.N.N.N.O=C([O-])CCl.O=C([O-])CCl.[Co+3].[O-][Cl+3]([O-])([O-])[O-]`, for which the GI50 was above 100 µM in the assay on IGROV1 ovarian; above 100 µM with HOP-62 NSCLC; above 100 µM with OVCAR-4 ovarian; above 100 µM in the assay with 786-0 renal; 86.5 µM with HOP-92 NSCLC. Also, the TGI in the assay on IGROV1 ovarian, in the assay with HOP-62 NSCLC, with OVCAR-4 ovarian, in the assay on 786-0 renal and in the assay on HOP-92 NSCLC was above 100 µM each time.

In the case of `Nc1ccc([N+](=O)[O-])cc1N=C/C=C/c1ccccc1`, the GI50 in the assay with MCF7 breast was 6.61 µM; with IGROV1 ovarian it was 7.48 µM; in the assay with DU-145 prostate it was 13.9 µM; in the assay with HOP-62 NSCLC, 42.5 µM; with OVCAR-4 ovarian it was 11.2 µM; in the assay with NCI/ADR-RES ovarian it was 7.84 µM. Besides, the GI50 is 7.67 µM in the assay on PC-3 prostate and 23.3 µM in the assay with 786-0 renal. For the same compound, the TGI in the assay on MCF7 breast is above 100 µM; in the assay with IGROV1 ovarian, 42.7 µM; in the assay on DU-145 prostate it was 64.9 µM; in the assay on HOP-62 NSCLC, above 100 µM; in the assay on OVCAR-4 ovarian, 90.2 µM; with NCI/ADR-RES ovarian, above 100 µM. The TGI with PC-3 prostate and with 786-0 renal was above 100 µM in each case.

As to `CC1=C(C(=O)Nc2ccc(F)c(Cl)c2)C(c2ccccc2O)NC(=S)N1` (stereo unspecified), the GI50 was above 50 µM in the assay on IGROV1 ovarian; 35 µM in the assay on HS 578T breast; 17.3 µM with DU-145 prostate; above 50 µM in the assay with HOP-62 NSCLC; above 50 µM with NCI/ADR-RES ovarian; 40.6 µM in the assay on PC-3 prostate. Also, the GI50 in the assay with 786-0 renal and in the assay with HOP-92 NSCLC was above 50 µM each time. Also, the TGI in the assay with IGROV1 ovarian was above 50 µM; in the assay on HS 578T breast, above 50 µM; in the assay on DU-145 prostate it was 45.7 µM; with HOP-62 NSCLC, above 50 µM; in the assay on NCI/ADR-RES ovarian it was above 50 µM; in the assay with PC-3 prostate, above 50 µM. Further, the TGI in the assay with 786-0 renal and in the assay with HOP-92 NSCLC was above 50 µM in each case.

As for `[N-]=[N+]=NC1(Cc2ccccc2)C(=O)c2cccc3c2N(CCC3)C1=O` (stereo unspecified), the TGI in the assay with IGROV1 ovarian, with HOP-62 NSCLC, with OVCAR-4 ovarian, in the assay on 786-0 renal and with HOP-92 NSCLC was above 100 µM each time.

As for `O=C(Nc1ccn(CCO)c(=O)n1)c1ccccc1`, the TGI in the assay with IGROV1 ovarian, in the assay with HOP-62 NSCLC, in the assay with OVCAR-4 ovarian, in the assay on 786-0 renal and with HOP-92 NSCLC was above 100 µM in each case.

Turning to `Cc1cc(Nc2ccc(NC(=O)c3ccc(Nc4ccnc5ccccc45)cc3)cc2)nc(N)n1`, the GI50 was 15 µM in the assay with IGROV1 ovarian; 5.79 µM in the assay on HS 578T breast; 2.03 µM in the assay on DU-145 prostate; above 100 µM with NCI/ADR-RES ovarian; 3.06 µM in the assay on 786-0 renal; 2.13 µM with HOP-92 NSCLC. Besides, the TGI with IGROV1 ovarian was 63.5 µM; with HS 578T breast it was above 100 µM; with DU-145 prostate, 5.16 µM; in the assay with NCI/ADR-RES ovarian, above 100 µM; in the assay with 786-0 renal, above 100 µM; in the assay with HOP-92 NSCLC it was 6.59 µM.
